US9232788B2, “Fumigation methods” (Honeywell International Inc., priority 2011, dated 2016)
“Also recorded” adds a separate entry of the source.

Legend:
[1] = test system: Lolium multiflorum Lam. seeds; assay: Fumigant test on weed seeds in soil, seed germination count; type: in vivo; details: for Seeds Germinated Loliium multiflorum Lam.: fifteen seeds in soil, two days treatment, counted after 10 days; for seed germination (in words): all experimental concentrations (80, 160, 440 ml)
Method: In particular, in 440 mL pressure vessels, fourteen seeds of Abutilon theophrasti Medik. and fifteen seeds of Lolium multiflorum Lam. were thoroughly mixed with 50 mL (approximately 30 grams) of soil and 6 mL of water. The filled vessels were kept at room temperature for 20-24 hr to allow the seeds to imbibe water before treatment. The vessels were sealed and evacuated, and then 80 ml, 160 ml and 440 ml respectively of gaseous 1225zc was added. The vessels were thoroughly mixed and placed horizontally on the laboratory bench at ambient temperature for two days. The contents of each bottle were transferred to a plastic sterile Petri dish containing 7 mL of water. The Petri dishes were sealed with parafilm and incubated in the laboratory at ambient temperature. After 10 days, the number of germinated seeds was counted. […]

[2] = Volatility of aqueous fumigant compositions with and without surfactant (weight loss); type: physicochemical; details: with Tween 80 nonionic surfactant versus without; 20° C., vented, weight loss every 30 seconds
Method: Experimentation was carried out to determine the volatility of aqueous fumigant compositions, both with and without inclusion of a surfactant. In each case, the fluorocarbon was placed in a chilled 500 ml Fischer Porter tube that was equipped with a vent to remove any gases. The vessel was cooled to 0° C. and was charged with varying amounts of water, fluorocarbon and surfactant. The temperature was equilibrated to 20° C. and the reactor was placed on a balance. The vent tube was opened and the weight loss was recorded every 30 seconds.
In analyzing the effects of adding surfactant to an aqueous solution of HFP, 10.11 grams of HFP was added to 39.71 grams of water. In a separate experiment, 9.83 grams of HFP and 4.03 grams of Tween™ 80 were added to 40.08 grams of water. FIG. 1 provides a graphical representation of the numerical data comparing the volatility of an aqueous solution of HFP, both with and without inclusion of the Tween™ 80 nonionic surfactant.
In analyzing the effects of adding surfactant to an aqueous solution of 1225zc, 10.78 grams of 1225zc were added to 39.69 grams of water. In a separate experiment, 10.70 grams of 1225zc and 4.08 grams of Tween™ 80 were added to 40.15 grams of water. […]

[3] = test system: Abutilon theophrasti Medik. seeds; assay: Fumigant test on weed seeds in soil, seed germination count; type: in vivo; details: for Seeds Germinated Abutilon theophrastic Medik.: fourteen seeds in soil, two days treatment, counted after 10 days; for seed germination (in words): all experimental concentrations (80, 160, 440 ml)
Method: In particular, in 440 mL pressure vessels, fourteen seeds of Abutilon theophrasti Medik. and fifteen seeds of Lolium multiflorum Lam. were thoroughly mixed with 50 mL (approximately 30 grams) of soil and 6 mL of water. The filled vessels were kept at room temperature for 20-24 hr to allow the seeds to imbibe water before treatment. The vessels were sealed and evacuated, and then 80 ml, 160 ml and 440 ml respectively of gaseous 1225zc was added. The vessels were thoroughly mixed and placed horizontally on the laboratory bench at ambient temperature for two days. The contents of each bottle were transferred to a plastic sterile Petri dish containing 7 mL of water. The Petri dishes were sealed with parafilm and incubated in the laboratory at ambient temperature. After 10 days, the number of germinated seeds was counted.
The same experiment was performed as described in Example 1 except that hexafluoropropene (HFP) was used as the active fumigant composition.

[4] = 80 ml gaseous fumigant in 440 mL vessel
[5] = 160 ml gaseous fumigant in 440 mL vessel
[6] = 440 ml gaseous fumigant in 440 mL vessel

SMILES | Seeds Germinated Loliium multiflorum Lam. [1, 4] | Seeds Germinated Loliium multiflorum Lam. [1, 5] | Seeds Germinated Loliium multiflorum Lam. [1, 6] | seed germination (in words) [1] | seed germination (in words) ([1]; listed as 1125c) | retention of the fluorocarbon in aqueous solution [2] | Seeds Germinated Abutilon theophrastic Medik. [3, 4] | Seeds Germinated Abutilon theophrastic Medik. [3, 5] | Seeds Germinated Abutilon theophrastic Medik. [3, 6] | seed germination (in words) [3] | seed germination (in words) ([3]; listed as 1125c)
FC(F)=CC(F)(F)F [1225zc, 1,1,3,3,3-pentafluoropropene] | 0 | 0 | 0 | none | completely prevented seed germination | longer retention | 0 | 0 | 0 | none | completely prevented seed germination
FC(F)=C(F)C(F)(F)F [HFP, hexafluoropropene] | 0 | 0 | 0 | completely prevented seed germination; also recorded: no germination occurred |  | longer retention | 0 | 0 | 0 | completely prevented seed germination; also recorded: no germination occurred | 
